ChEMBL document CHEMBL1201862, “PubChem BioAssay data set” (2004)
Active and inactive are the calls of the source.

Legend:
Assay type in all cases: functional
[1] = target: Vascular endothelial growth factor receptor 1 (Homo sapiens, UniProt P17948);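 note: measured within a kinome-wide profiling panel, FLT1 as the panel member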
[2] = target: T1, cAMP-dependent protein kinase catalytic subunit PRKX (Homo sapiens, UniProt P51817)
T1 sequence (P51817 whole entry): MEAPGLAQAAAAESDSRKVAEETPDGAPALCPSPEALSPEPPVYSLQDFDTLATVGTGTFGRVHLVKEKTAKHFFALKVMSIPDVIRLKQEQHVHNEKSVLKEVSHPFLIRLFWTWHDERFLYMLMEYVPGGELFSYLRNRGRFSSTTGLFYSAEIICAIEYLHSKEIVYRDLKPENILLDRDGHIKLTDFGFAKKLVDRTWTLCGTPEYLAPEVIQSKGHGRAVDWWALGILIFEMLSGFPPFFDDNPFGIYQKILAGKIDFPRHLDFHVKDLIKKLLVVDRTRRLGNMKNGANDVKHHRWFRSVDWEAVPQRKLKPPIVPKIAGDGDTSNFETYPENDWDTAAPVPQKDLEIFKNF

[3] = target: Serine/threonine-protein kinase pim-1 (Homo sapiens, UniProt P11309)
[4] = target: Cyclin-dependent kinase 7 (Homo sapiens, UniProt P50613);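 note: value comes from a kinome-wide kinase profiling panel in which CDK7 is one member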
Chain of Cyclin-dependent kinase 7 (P50613 whole entry): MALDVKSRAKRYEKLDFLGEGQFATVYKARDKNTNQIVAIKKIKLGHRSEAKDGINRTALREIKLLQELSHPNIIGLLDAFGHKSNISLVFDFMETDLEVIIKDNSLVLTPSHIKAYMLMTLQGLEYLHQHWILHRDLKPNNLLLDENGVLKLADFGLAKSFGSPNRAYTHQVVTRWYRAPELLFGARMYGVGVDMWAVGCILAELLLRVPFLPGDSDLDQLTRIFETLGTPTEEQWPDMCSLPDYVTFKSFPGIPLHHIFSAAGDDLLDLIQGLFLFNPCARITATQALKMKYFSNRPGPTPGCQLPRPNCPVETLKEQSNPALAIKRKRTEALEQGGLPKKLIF

[5] = target: T2, Serine/threonine-protein kinase TAO1 (Homo sapiens, UniProt Q7L7X3)
T2 sequence (Q7L7X3 whole entry): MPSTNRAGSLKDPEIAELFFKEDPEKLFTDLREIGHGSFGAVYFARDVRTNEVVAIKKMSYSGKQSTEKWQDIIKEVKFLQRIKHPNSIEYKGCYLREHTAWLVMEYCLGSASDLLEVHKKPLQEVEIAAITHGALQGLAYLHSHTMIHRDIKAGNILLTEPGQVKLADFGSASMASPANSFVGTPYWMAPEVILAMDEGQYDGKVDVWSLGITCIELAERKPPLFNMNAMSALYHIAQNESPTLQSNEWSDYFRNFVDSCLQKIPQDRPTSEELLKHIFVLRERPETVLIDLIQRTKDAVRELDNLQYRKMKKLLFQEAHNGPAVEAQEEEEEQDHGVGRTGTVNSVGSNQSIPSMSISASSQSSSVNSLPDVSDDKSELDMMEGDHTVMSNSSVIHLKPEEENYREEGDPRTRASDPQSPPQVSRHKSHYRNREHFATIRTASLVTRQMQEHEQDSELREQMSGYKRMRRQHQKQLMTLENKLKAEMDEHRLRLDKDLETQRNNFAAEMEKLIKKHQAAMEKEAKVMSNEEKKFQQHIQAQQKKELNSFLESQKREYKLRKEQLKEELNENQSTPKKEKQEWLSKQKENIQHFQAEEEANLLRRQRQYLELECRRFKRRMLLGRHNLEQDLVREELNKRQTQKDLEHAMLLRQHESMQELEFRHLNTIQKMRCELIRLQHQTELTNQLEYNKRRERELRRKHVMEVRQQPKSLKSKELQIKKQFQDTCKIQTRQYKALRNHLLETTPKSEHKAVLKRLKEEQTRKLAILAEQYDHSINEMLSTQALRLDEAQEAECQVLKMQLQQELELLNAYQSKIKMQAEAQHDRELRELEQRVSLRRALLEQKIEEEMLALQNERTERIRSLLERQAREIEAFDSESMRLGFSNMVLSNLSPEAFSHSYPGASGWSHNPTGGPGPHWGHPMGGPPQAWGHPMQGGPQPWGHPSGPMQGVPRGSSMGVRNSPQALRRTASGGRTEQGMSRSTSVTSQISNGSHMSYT

[6] = target: cAMP-dependent protein kinase catalytic subunit alpha (Homo sapiens, UniProt P17612)
[7] = target: Glycogen synthase kinase-3 alpha (Homo sapiens, UniProt P49840);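 note: GSK3A result taken from a broad kinome-wide kinase panel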
Chain of Glycogen synthase kinase-3 alpha (P49840 whole entry): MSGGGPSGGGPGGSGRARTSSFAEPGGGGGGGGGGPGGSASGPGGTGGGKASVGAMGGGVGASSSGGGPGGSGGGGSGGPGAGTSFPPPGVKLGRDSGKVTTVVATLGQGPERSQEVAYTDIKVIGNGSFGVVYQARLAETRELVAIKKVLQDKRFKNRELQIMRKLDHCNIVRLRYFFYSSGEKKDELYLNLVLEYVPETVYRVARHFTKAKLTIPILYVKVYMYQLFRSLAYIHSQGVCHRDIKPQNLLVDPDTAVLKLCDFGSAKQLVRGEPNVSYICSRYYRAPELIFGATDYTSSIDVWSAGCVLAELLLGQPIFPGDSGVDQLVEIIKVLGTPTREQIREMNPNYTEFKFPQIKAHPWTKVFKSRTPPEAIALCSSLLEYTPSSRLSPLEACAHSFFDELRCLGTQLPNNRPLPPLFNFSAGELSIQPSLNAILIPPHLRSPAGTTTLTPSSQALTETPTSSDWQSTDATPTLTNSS

[8] = target: 5'-AMP-activated protein kinase catalytic subunit alpha-1 (Homo sapiens, UniProt Q13131)
Chain of 5'-AMP-activated protein kinase catalytic subunit alpha-1 (Q13131 whole entry): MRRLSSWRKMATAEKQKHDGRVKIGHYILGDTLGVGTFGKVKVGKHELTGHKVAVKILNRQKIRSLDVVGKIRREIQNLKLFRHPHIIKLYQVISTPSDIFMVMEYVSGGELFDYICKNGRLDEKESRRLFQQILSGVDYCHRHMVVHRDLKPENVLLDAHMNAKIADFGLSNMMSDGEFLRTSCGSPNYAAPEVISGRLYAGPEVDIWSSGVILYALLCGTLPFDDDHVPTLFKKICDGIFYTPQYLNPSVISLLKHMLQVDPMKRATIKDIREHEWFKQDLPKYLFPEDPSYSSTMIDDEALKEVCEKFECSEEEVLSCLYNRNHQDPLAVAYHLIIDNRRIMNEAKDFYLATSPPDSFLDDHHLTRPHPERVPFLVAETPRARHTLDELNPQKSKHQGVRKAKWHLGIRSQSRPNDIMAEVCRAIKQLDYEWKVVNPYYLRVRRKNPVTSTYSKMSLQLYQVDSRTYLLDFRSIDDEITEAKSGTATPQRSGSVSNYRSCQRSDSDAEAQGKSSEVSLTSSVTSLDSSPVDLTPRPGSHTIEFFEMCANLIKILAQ

[9] = target: T3, Tyrosine-protein kinase receptor TYRO3 (Homo sapiens, UniProt Q06418);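 note: TYRO3 value obtained as one member of a kinome-wide profiling panel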
T3 sequence (Q06418 whole entry): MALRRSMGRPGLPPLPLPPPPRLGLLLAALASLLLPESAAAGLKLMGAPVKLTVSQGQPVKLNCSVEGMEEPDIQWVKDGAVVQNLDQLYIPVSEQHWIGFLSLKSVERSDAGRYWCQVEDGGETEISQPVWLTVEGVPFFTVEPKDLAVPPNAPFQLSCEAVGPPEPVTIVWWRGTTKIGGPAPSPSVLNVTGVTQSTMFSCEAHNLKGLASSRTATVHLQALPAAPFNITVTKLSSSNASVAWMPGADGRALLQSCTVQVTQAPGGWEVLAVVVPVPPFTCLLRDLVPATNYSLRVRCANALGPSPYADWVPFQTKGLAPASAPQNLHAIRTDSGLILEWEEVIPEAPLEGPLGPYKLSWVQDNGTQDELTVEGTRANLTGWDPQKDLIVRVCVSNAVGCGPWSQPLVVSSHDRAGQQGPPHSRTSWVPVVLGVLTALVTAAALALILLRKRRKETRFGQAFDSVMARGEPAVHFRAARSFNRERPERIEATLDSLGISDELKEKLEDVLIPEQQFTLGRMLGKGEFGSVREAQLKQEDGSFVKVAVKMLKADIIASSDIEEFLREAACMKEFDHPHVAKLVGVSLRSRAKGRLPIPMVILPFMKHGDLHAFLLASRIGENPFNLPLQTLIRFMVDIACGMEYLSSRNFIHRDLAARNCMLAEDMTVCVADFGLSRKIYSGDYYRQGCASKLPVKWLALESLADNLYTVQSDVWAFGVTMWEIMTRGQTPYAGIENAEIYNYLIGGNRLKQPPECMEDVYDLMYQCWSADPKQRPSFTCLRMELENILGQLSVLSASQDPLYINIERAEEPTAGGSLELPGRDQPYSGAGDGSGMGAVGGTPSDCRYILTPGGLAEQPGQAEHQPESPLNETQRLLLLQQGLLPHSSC

[10] = target: Dual specificity protein kinase CLK2 (Homo sapiens, UniProt P49760)
Chain of Dual specificity protein kinase CLK2 (P49760 whole entry): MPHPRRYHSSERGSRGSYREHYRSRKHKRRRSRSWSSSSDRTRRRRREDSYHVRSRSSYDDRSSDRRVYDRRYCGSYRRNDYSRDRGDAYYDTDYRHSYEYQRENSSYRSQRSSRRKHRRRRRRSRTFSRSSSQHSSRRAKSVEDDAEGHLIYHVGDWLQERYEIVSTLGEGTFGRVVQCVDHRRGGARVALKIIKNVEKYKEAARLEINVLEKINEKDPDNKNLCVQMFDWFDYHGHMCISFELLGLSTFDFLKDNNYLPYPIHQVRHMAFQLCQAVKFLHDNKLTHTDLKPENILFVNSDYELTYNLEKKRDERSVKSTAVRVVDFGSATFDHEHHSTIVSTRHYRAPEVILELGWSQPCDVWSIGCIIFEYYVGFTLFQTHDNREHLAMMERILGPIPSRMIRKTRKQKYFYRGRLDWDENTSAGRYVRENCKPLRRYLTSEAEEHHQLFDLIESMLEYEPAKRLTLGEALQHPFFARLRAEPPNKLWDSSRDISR

[11] = target: Tyrosine-protein kinase JAK2 (Homo sapiens, UniProt O60674);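 note: JAK2 tested as one member of a kinase panel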
Aurora kinase B = Aurora kinase B (Homo sapiens, UniProt Q96GD4)
Chain of Aurora kinase B (Q96GD4 whole entry): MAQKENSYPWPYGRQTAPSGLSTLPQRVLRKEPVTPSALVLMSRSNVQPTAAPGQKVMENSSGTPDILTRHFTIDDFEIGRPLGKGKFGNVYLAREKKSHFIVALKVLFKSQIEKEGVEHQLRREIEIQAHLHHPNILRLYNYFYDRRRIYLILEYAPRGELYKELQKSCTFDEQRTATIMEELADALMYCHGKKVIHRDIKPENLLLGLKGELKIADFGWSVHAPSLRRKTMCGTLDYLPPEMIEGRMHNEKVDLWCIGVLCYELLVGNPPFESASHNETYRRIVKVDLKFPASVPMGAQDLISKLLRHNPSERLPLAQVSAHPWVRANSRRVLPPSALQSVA

[12] = target: Death-associated protein kinase 3 (Homo sapiens, UniProt O43293);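 note: measured as one member of a kinome-wide profiling panel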
Chain of Death-associated protein kinase 3 (O43293 whole entry): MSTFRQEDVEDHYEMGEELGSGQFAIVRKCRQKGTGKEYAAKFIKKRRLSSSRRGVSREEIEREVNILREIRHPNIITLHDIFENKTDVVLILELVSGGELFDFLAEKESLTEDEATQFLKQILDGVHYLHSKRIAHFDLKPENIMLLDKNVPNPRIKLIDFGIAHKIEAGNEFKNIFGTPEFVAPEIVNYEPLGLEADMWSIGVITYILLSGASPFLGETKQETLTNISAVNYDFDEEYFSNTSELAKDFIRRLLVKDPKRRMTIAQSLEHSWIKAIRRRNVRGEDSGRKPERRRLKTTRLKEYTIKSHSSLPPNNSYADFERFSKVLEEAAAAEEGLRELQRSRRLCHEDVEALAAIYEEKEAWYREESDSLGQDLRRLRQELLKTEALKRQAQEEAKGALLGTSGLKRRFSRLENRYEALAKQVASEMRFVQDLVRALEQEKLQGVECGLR

[13] = target: Calcium/calmodulin-dependent protein kinase type II subunit alpha (Homo sapiens, UniProt Q9UQM7); assay: Navigating the Kinome. Panel member name: CAMK2A
Chain of Calcium/calmodulin-dependent protein kinase type II subunit alpha (Q9UQM7 whole entry): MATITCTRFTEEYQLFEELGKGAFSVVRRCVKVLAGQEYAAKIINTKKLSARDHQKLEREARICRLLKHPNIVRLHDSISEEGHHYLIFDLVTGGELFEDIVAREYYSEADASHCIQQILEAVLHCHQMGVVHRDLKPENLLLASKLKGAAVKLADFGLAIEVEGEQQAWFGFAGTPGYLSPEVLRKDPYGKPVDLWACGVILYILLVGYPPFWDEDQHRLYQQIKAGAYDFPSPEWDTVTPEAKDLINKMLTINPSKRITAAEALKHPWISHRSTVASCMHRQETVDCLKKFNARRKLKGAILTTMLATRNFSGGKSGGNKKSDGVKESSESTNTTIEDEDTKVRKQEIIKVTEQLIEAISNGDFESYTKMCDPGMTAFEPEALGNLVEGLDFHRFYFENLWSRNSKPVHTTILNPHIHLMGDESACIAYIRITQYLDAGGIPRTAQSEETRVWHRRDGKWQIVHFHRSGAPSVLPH

[14] = target: Cyclin-dependent kinase 8 (Homo sapiens, UniProt P49336); assay: Navigating the Kinome. Panel member name: CDK8
Chain of Cyclin-dependent kinase 8 (P49336 whole entry): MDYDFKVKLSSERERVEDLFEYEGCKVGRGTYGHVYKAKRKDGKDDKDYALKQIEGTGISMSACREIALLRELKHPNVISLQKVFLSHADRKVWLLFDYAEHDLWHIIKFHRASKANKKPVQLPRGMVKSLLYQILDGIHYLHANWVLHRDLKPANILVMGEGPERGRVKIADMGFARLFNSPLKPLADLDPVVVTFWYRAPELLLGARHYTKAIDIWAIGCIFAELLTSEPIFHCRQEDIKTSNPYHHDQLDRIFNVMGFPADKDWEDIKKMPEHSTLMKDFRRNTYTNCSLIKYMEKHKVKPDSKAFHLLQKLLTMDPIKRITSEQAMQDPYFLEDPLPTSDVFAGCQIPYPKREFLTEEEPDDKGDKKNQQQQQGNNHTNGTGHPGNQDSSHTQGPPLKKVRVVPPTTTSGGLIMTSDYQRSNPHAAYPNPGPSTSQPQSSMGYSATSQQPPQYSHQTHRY

Chain of Vascular endothelial growth factor receptor 1 (P17948 whole entry): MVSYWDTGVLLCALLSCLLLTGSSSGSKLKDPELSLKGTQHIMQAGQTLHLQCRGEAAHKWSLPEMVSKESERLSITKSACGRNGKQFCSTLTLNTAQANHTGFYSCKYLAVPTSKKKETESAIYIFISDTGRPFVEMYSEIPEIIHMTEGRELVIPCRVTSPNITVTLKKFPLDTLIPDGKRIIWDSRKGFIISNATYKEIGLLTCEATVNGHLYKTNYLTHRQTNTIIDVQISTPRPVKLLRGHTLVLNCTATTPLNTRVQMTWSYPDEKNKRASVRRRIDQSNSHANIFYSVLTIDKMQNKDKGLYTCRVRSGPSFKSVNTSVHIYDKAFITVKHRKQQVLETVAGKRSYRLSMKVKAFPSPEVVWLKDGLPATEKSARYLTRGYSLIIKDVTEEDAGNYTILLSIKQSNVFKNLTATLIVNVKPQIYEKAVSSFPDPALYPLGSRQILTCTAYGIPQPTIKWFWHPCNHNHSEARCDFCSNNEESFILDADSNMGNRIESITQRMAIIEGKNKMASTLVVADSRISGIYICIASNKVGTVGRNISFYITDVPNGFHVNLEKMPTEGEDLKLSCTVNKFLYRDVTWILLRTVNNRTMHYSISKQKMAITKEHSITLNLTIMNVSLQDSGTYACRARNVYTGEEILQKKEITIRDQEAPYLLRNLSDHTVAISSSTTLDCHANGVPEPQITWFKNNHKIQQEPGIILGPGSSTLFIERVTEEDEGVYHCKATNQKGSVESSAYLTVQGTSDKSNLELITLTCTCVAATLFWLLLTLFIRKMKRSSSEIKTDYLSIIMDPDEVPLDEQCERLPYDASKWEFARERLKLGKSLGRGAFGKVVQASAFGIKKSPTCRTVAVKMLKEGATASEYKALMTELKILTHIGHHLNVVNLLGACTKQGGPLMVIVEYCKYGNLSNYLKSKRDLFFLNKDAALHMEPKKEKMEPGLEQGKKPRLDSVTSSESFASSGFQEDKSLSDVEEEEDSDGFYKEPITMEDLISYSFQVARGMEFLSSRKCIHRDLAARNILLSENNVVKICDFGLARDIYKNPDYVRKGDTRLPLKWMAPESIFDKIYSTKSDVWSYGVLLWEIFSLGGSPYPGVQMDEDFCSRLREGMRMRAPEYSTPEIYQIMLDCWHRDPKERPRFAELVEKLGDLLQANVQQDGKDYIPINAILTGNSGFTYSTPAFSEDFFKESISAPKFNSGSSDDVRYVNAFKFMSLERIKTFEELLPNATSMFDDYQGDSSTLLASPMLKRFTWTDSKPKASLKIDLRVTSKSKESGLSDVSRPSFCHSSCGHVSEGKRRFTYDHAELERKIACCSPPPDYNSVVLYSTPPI

Ki [1]	Ki [2]	Ki [3]	Ki [4]	Ki [5]	Ki [6]	Ki [7]	Ki [8]	Ki [9]	Ki [10]	Ki [11]	Ki (Aurora kinase B)	Ki [13]	Ki [14]	SMILES	Ki [12]
> 0.398 µM (inactive)	0.00631 µM (active)	0.251 µM (active)	0.00398 µM (active)	0.316 µM (active)	0.0501 µM (active)	0.158 µM (active)	0.126 µM (active)	> 2 µM (inactive)	0.00501 µM (active)	0.251 µM (active)	2 µM (active)			NC1CCC(Nc2nccc(-c3c[nH]c4ncccc34)n2)CC1 (centres undefined)	0.158 µM (active)
25.1 µM (active)	15.8 µM (active)	15.8 µM (active)	12.6 µM (active)	79.4 µM (active)	5.01 µM (active)	2.51 µM (active)	31.6 µM (active)	63.1 µM (active)	1 µM (active)	25.1 µM (active)	20 µM (active)	79.4 µM (active)	6.31 µM (active)	OCc1cc(-c2ccc3[nH]ncc3c2)on1	3.98 µM (active)
79.4 µM (active)	20 µM (active)	50.1 µM (active)	10 µM (active)	79.4 µM (active)	10 µM (active)	12.6 µM (active)	6.31 µM (active)	25.1 µM (active)	6.31 µM (active)	31.6 µM (active)	31.6 µM (active)	63.1 µM (active)	15.8 µM (active)	CC(C)(O)c1cn(-c2ccc3[nH]ncc3c2)nn1	2 µM (active)

SMILES	Ki [1]	Ki [2]	Ki [3]	Ki [4]	Ki [5]	Ki [6]	Ki [7]	Ki [8]	Ki [9]	Ki [10]	Ki [11]	Ki (Aurora kinase B)	Ki [13]	Ki [14]	Ki [12]
COC(C(=O)N1Cc2[nH]nc(NC(=O)c3ccc(N4CCN(C)CC4)cc3)c2C1)c1ccccc1 (centres undefined)	0.0398 µM (active)	> 2.51 µM (inactive)							> 2.51 µM (inactive)				> 6.31 µM (inactive)	> 3.98 µM (inactive)	0.794 µM (active)
